Data taken from publication PMC6026642 (Frontiers in Chemistry, 2018).
Read-outs that look alike come from different tables or passages of the source. No end group written: not given here.

Tests used:
[1] = rat, in vivo, 2 mg/kg
in vivo = conditions: both, Wistar, rat, 2 mg/kg
PRV = type: cell-based, pseudorabies virus; conditions: TCID50 based, R = A2/A1 × 100%; 50 μg/ml peptide (method says 50 μM, 1 h incubation); Vero and PK-15 cells; mean
PEDV = type: cell-based, porcine epidemic diarrhea virus

With FFHHIFRGIVHVGKTIHRLVTG [Piscidin 1] the “AUC0−∞” value [1] was 78.40 ± 8.64 µg·h/g, the “CLb (body clearance)” value [1] was 0.433 ± 0.13 mL/min/kg and the Cmax [1] was 1.67 ± 0.19 µg/g. The “Ke (elimination rate constant)” value [1] was 0.034 ± 0.06 h⁻¹, the MRT [1] was 36.45 ± 2.45 h and the “Ratio of AUC0−∞, ileum content / serum” value [1] was 4.14. The “Ratio of CLb, ileum content / serum” value [1] was 0.273, the “Ratio of Cmax, ileum content / serum” value [1] was 0.71 and the “Ratio of Ke, ileum content / serum” value [1] was 1.17. For the same sequence, the “Ratio of MRT, ileum content / serum” value [1] was 1.21, the “Ratio of T1/2, ileum content / serum” value [1] was 0.858 and the “Ratio of Tmax, ileum content / serum” value [1] was 24.38. For the same sequence, the “T1/2 (elimination half-life)” value [1] was 20.16 ± 1.76 h, the Tmax [1] was 8.12 ± 1.02 h and the AUC(0-inf) (in vivo; im) was 19000 ± 1370 ng·h/mL. It also gave a Cmax (in vivo; im) of 2370 ± 160 ng/mL, an MRT (in vivo; im) of 30.1 ± 2.46 h and a Tmax (in vivo; im) of 0.333 ± 0.151 h. For the same sequence, the bioavailability (in vivo; im) was 73.2%, the half-life (in vivo; im) was 23.5 ± 2.43 h and the AUC(0-inf) (in vivo; iv) was 25900 ± 3210 ng·h/mL. It also gave an MRT (in vivo; iv) of 22.8 ± 2.43 h, a clearance (in vivo; iv) of 1.12 mL/min/kg and a half-life (in vivo; iv) of 17 ± 1.43 h. For the same sequence, the AUC(0-inf) (in vivo; po) was 9630 ± 870 ng·h/mL, the Cmax (in vivo; po) was 730 ± 80 ng/mL and the MRT (in vivo; po) was 26.8 ± 2.89 h. It also gave a Tmax (in vivo; po) of 0.5 ± 0.23 h, a bioavailability (in vivo; po) of 37.2% and a half-life (in vivo; po) of 19.5 ± 1.67 h.
With “FKCRRWQWRM KKLGAPSITC VRRAF [lactoferricin]” the “virus survived ratio of PRV” value (PRV) was 82% and the “virus survived ratio of PEDV” value (PEDV) was 93%.
